Literature values, collected in patent US20120164210A1, “PHOTODYNAMIC THERAPEUTIC AGENT HAVING CELL-SPECIFIC ACTIVE ACCUMULATION PROPERTIES” (The University of Tokyo, priority 2008, published 2012).

Key:
tumor tissue = settings: in vivo
[1] = after administration, light shielding required

Photofrin
incorporation into tumor tissue relative to normal tissue (tumor tissue): about 4 times | sunlight hypersensitivity as a complication [1]: cause sunlight hypersensitivity
